This is an account of results in PMC3774728, “Identification of the Plant Compound Geraniin as a Novel Hsp90 Inhibitor” (PLoS ONE, 2013).

The target of test [1] is T1, recombinant Hsp90α (Homo sapiens, UniProt P07900).
T1 construct: purchased Assay Designs (Ann Arbor, MI, USA)
The test is described as follows: Surface plasmon resonance binding to immobilized Hsp90α. To be noted: SPR, immobilized Hsp90α, 25°C, single-site bimolecular model, 0.025-1 µM; read-out: KD. Here is the method: SPR analyses were carried out according to our previously published procedures, [23]. Briefly, SPR analyses were performed using a Biacore 3000 optical biosensor equipped with research−grade CM5 sensor chips (GE Healthcare). Using this platform, two separate recombinant Hsp90α surfaces, a BSA surface and one unmodified reference surface were prepared for simultaneous analyses. Proteins (100 µg mL^−1 in 10 mM CH3COONa, pH 5.0) were immobilized on individual sensor chip surfaces at a flow rate of 5 µL min^−1 using standard amine−coupling protocols to obtain densities of 8–12 kRU. Polyphenols, as well as 17-AAG and hardwickiic acid (HA), were dissolved in 100% DMSO to obtain 4 mM solutions, and diluted 1∶200 (v/v) in PBS (10 mM NaH2PO4, 150 mM NaCl, pH 7.4) to a final DMSO concentration of 0.5%. […] Binding experiments were performed at 25°C, using a flow rate of 50 µL min^−1, with 60 s monitoring of association and 300 s monitoring of dissociation. Simple interactions were suitably fitted to a single−site bimolecular interaction model (A+B = AB), yielding a single K D. Sensorgram elaborations were performed using the BIAevaluation software provided by GE Healthcare.
Putative interactions of different plant-derived phenolic compounds with Hsp90α were evaluated by a SPR-based approach.

Test [2] deals with HeLa cells. Put plainly: MTT cell viability, HeLa. The format is cell-based, human. To be noted: Homo sapiens, 24 h. Here is the method:
(§1) To ensure logarithmic growth, cells were subcultured every two days. As control cells, human peripheral blood mononuclear cells (PBMC) were isolated from buffy coats of healthy donors (kindly provided by the Blood Center of the Hospital of Battipaglia, Salerno, Italy) by using standard Ficoll−Hypaque gradients. […] Proliferation of PBMC was induced by phytohemagglutinin (PHA) (10 µg mL^−1). Tumor and PBMC cells were treated with different concentrations of geraniin or 17-AAG to evaluate their cytotoxic effects. Stock solutions of geraniin (50 mM in DMSO) and 17-AAG (10 mM in DMSO) were stored a −20°C in the dark and diluted just before addition to the sterile culture medium. In all the experiments, the final concentration of DMSO was 0.10% (v/v).
(§2) Jurkat (2×10^4/well) and HeLa (5000/well) cells were seeded in triplicate in 96 well−plates and incubated for 24 h in the absence or presence of different concentrations of geraniin (between 0,5 µM to 50 µM) or 17-AAG (between 0,5 nM to 10 µM).
(§3) The number of viable cells was determined by using a [3–4,5-dimethyldiazol-2-yl]-2,5-diphenyl tetrazolium bromide (MTT, Sigma-Aldrich) conversion assay, according to the method described by Mosmann. […] The absorbance was measured with a microplate reader (Titertek multiskan MCC7340, LabSystems, Vienna, VA, USA) equipped with a 620 nm filter. […]

Test [3] deals with Jurkat cells. Put plainly: MTT cell viability, Jurkat. To be noted: Homo sapiens, 24 h. It is filed as cell-based, human. As for the experimental part:
as §1, §2, §3

The subject of test [4] is Jurkat cells. Put plainly: Cell cycle and hypodiploidy by flow cytometry (PI), Jurkat. It is filed as cell-based, human. As to conditions: 24 h, geraniin 0.7 µM, 17-AAG 10 µM. As for the experimental part: (§4) Cell DNA content was measured by propidium iodide (PI) incorporation into permeabilized cells, as described by Nicoletti et al.. Briefly, the cells were harvested after geraniin or 17-AAG treatments were washed with cold PBS and incubated with a PI solution (0.1% sodium citrate, 0.1% Triton X-100 and 50 µg mL^−1 of prodium iodide, Sigma-Aldrich, 10 µg/ml Rnase A) for 30 min at room temperature. Data from 10.000 events per sample were collected by a FACScalibur flow cytometer (Becton Dickinson, San José, CA) and cellular debris was excluded from analysis by raising the forward scatter threshold. The percentage of cells in the sub G0/G1 phase, apoptotic fraction, was quantified using CellQuest software (Becton Dickinson). The distribution of cells in G0/G1, S, G2/M phases was determined using ModFit LT cell cycle analysis software (Becton Dickinson). Results were expressed as a mean ± SD of three experiments performed in triplicate.
(§5) Figure 6 Effects of geraniin and 17-AAG on cell cycle progression. Percentage of cell cycle stages was analyzed by flow cytometry, (A) PI-stained viable Jurkat cells treated with DMSO, 0.7 µM geraniin or 10 µM 17-AAG for 24 h.

Test [5] has as its system HeLa cells. Put plainly: Cell cycle and hypodiploidy by flow cytometry (PI), HeLa. It is filed as cell-based, human. As to conditions: 24 h, geraniin 5 µM, 17-AAG 0.2 µM. Here is the method: as §4, §5
Test [6] relates to Hsp70, Hsp90 and Hsp90 client proteins in HeLa cells. Put plainly: Western blot of Hsp70 and Hsp90 client proteins, HeLa. It is filed as cell-based, human. To be noted: 24 h. As for the experimental part: Treated cells were harvested and disrupted by freeze−thawing in RIPA buffer (50 mM Hepes, 10 mM EDTA, 150 mM NaCl, 1% NP-40, 0.5% sodium deoxycholate, 0.1% SDS, pH 7.4), supplemented with protease inhibitors cocktail (Sigma-Aldrich). Cell debris was removed by centrifugation at 4°C and the supernatant protein concentration was determined, according to the Bio-Rad Protein assay (Biorad Laboratories, CA, USA). Total proteins (30 µg) were separated by SDS-PAGE under denatured reducing conditions. Separated proteins were then transferred to nitrocellulose membranes and blocked for 3 h with a solution containing 3% BSA in 50 mM Tris, 200 mM NaCl, 0.1% Tween 20, before incubation at 4°C overnight with the different primary antibodies (diluted 1∶1000) against specific proteins. After washing, the membranes were incubated with an appropriate peroxidase-conjugate secondary antibodies at room temperature (1 h). Immunoreactive protein bands were detected by enhanced chemiluminescence reagent (ECL, Rockford, USA), according to the manufacturer’s instructions. Quantitative densitometry analyses were performed using a Gel Doc 2000 system (Biorad Laboratories, CA, USA).
Figure 7 Effect of geraniin on Hsp90 client protein levels. Equal amounts (30 µg) of whole-cell lysates were separated on SDS-PAGE and client proteins were visualized by western blot analysis using specific antibodies. Actin was used as loading control. Total cellular proteins were extracted 24 h after treatment with geraniin (2.5 µM, 5 µM and 10 µM) in Jurkat cells (A) or geraniin (1 µM, 0.7 µM and 0.5 µM) in HeLa cells (B), ctrl = control cells treated with DMSO). The blots shown are representative of three different experiments with similar results.
(A western blot detects proteins with antibodies after separation by electrophoresis.)

For the compound `O=C1O[C@H]2[C@@H]3OC(=O)c4cc(O)c(O)c(O)c4-c4c(cc(O)c(O)c4O)C(=O)OC[C@H]2O[C@@H](OC(=O)c2cc(O)c(O)c(O)c2)[C@@H]3OC(=O)c2cc(O)c(O)c3c2[C@@H]2C1=CC(=O)[C@](O)(O3)C2(O)O` [Compound 54, geraniin], the Kd (commonly the free concentration of one partner at which half of the binding sites on the other are occupied at equilibrium, for simple one-to-one binding) in test [1] is 415 ± 27 nM. Also, the IC50 (commonly the concentration that gives 50% inhibition) is 5100 ± 200 nM in test [2] and 760 ± 100 nM in test [3]. Moreover, the cell cycle arrest result in test [4] and in test [5] was “G2/M arrest” throughout. Also, the entries for the “percentage of cells with hypodiploid nuclei” value in test [4] and in test [5] were 9.75±1.02% and 16.2±0.7%, respectively. Moreover, the Hsp70 expression increase in test [6] (10 µM geraniin) is on record as 2.7±0.09 fold. Further, in test [6], the “level of Akt” value is given as “unaffected”. Besides, the “level of the client proteins c-Raf, pAkt and EGFR” value in test [6] (IC50 and lower and higher concentrations) is listed as “dose-dependent decrease”.
